The target in the experiment is T1, integrin α4β1 (Homo sapiens, UniProt P05556+P13612).
T1 construct: endogenous in cells; host or cells: Jurkat cells
T1 sequence (P13612 34-1032): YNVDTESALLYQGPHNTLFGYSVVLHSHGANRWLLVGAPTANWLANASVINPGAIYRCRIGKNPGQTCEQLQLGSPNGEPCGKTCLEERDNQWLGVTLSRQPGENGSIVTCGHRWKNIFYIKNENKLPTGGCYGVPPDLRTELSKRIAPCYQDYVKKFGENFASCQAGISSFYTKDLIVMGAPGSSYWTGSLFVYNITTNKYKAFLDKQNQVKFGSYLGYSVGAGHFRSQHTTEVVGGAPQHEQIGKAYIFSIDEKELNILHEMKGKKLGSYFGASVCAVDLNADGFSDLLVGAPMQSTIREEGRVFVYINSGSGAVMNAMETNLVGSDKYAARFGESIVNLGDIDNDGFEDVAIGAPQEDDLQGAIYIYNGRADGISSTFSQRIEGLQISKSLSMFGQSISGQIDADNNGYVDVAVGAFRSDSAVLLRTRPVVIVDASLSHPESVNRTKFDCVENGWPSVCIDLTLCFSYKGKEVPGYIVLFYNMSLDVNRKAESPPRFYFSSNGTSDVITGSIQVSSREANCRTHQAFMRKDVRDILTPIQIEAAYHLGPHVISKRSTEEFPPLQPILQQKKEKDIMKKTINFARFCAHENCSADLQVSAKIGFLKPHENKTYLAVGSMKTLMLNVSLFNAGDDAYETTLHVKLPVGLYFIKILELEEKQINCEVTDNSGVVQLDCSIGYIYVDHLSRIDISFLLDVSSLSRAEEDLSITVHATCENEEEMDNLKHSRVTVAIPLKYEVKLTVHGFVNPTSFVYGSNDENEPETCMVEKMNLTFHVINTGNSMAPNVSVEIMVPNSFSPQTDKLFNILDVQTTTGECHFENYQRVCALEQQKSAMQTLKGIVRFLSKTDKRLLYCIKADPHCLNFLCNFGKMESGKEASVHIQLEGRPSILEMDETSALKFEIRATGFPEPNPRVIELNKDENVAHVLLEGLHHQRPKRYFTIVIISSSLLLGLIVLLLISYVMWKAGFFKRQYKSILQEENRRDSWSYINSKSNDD
T1 sequence (P05556 21-798): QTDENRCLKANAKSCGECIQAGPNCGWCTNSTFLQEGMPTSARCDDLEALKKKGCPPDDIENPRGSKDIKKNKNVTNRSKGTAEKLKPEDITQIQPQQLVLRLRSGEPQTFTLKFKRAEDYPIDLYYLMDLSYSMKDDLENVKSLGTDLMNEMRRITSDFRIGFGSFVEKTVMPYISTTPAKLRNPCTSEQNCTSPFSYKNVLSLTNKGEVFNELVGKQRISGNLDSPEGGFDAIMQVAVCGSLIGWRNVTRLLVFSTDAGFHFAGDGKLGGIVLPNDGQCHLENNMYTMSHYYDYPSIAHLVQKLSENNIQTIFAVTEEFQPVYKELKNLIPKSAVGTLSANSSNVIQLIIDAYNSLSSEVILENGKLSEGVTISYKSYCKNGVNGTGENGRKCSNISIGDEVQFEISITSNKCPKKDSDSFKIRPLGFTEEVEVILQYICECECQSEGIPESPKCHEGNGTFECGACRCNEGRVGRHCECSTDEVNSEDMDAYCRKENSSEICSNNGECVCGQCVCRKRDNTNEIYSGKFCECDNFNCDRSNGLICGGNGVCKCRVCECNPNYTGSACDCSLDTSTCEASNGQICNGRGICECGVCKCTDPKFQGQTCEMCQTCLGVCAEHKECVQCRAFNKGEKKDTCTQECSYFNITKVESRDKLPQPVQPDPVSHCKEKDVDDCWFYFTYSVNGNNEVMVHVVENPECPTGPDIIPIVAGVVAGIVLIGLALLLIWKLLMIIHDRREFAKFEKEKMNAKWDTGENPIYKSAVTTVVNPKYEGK
Description: Inhibition of α4β1-dependent cell adhesion (Jurkat cells to peptide CS-1). The experiment is classed as cell-based. The note with it: adhesion of Jurkat cells to CS-1-coated plates; products preincubated with cells at 37° C. for 30 minutes; at least 6 product concentrations. The protocol:
Inhibition of α4β1-Dependent Cell Adhesion
Inhibition of α4β1-dependent cell adhesion was assayed by evaluating the interaction between the peptide CS-1 (H-CLHGPEILDVPST-CONH2) and Jurkat cells (T lymphocyte cell line expressing activated integrin α4β1 but not integrin α4β7) after preincubation of said cells with the compounds of formula I to be tested. The peptide CS-1 was synthesized by conventional solid phase chemistry and purified by HPLC. Its identity was determined by elemental analysis and mass spectroscopy.
1.—Preparation of CS-1-Coated Plates
96-black well plates (Costar 3925) were used. 200 μL of 2% bovine serum albumin solution (BSA, Sigma α4503) was added per well and the plate was incubated for 2 hours at 37° C. The solution was discarded and the plate was washed twice with 200 μL of phosphate buffered saline solution (PBS, Gibco 14190-094) per well. Then, 200 μL of 10 μg/mL N-succinimidyl 3-(2-pyridyldithio)propionate solution (SPDP, Sigma P-3415) was added per well, and the plate was incubated at 37° C. for 30 minutes. The remaining solution was discarded and the plate was twice washed with 200 μL per well of PBS. Next, 200 μL of 25 μg/mL CS-1 peptide solution (equivalent to 5 μg/well) was added per well and the plate was incubated at 37° C. for 2 hours and then overnight at 4° C.
2.—Jurkat Cell Line: Culture and Fluorescent Labelling
Jurkat cells were kept in culture at a density comprised between 2×10^5 and 1.5×10^6 cells/mL in 1640 RPMI medium (Gibco 21875-034) enriched with 10% fetal calf serum (FCS, Gibco 10270-106).
50×10^6 cells were extracted, centrifuged (1200 rpm, 10 min, room temperature) and the medium was discarded. Cells were resuspended in 5 mL of RPMI, and 10 μL of a 1 mM solution of the fluorophore calceine.AM (Molecular Probes, C-3100) was added. The suspension was incubated for 30 min at 37° C. in the darkness, with occasional shaking. 40 mL of RPMI was added to stop the labelling and the suspension was centrifuged (1200 rpm, 10 min, room temperature). The medium was discarded, and the labelled cells were washed with 40 mL of RPMI in order to remove the unincorporated fluorescent probe. Finally, cells were resuspended in RPMI enriched with 10% FCS to obtain a 8×10^6 cells/mL suspension.
The plate previously prepared was twice washed with 200 μL per well of PBS and blocked with 200 μL of 1% BSA for at least 1 hour at room temperature.
The products to be tested were dissolved in dimethylsulfoxide at a concentration of 10 mM and dilutions thereof were prepared in RPMI medium enriched with 10% FCS. The products were preincubated with the Jurkat cells at 37° C. for 30 minutes, at a product concentration comprised between 1 nM and 10 μM, at a cell density of 4×10^6 cells/mL and at a maximal dimethylsulfoxide concentration of 0.1%.
100 μL of the resulting cell-product supsension was added per well (cellular density 4×10^5 cells/well). The product was omitted in the control wells and cells or CS-1 were omitted in the blanks. The plate was incubated for 60 min at room temperature in the-darkness, was twice washed with 200 μL per well of RPMI and then 100 μL of PBS was added. The plate was read with a fluorescence reader at an excitation wavelength of 485 nm and at an emission wavelength of 530 nm.
Maximal adhesion (100%) was determined as the average of the fluorescence intensities (FI) of the control wells, and the minimal adhesion as the average FI of the blanks. The adhesion inhibition percentage was determined using the following formula: [formula]
The results are expressed as the IC50 values (concentration producing 50% inhibition). IC50 values were calculated by testing at least 6 product concentrations and by adjusting the inhibition percentages to a dose-response curve of variable slope.
`CCN(CC)CCC1CCN(C(=O)CC[C@H](NC(=O)[C@@H]2CCCN2S(=O)(=O)c2cc(Cl)cc(Cl)c2)C(=O)O)CC1` [Example 91, (2S)-2-[1-(3,5-Dichlorophenylsulfonyl)-L-prolylamino]-5-[4-[2-(diethylamino)ethyl]piperidin-1-yl]-5-oxopentanoic Acid] had an IC50 of 64.6 nM.

On to `O=C(O)[C@H](CCC(=O)N1CCC(CCN2CCOCC2)CC1)NC(=O)[C@@H]1CCCN1S(=O)(=O)c1cc(Cl)cc(Cl)c1` [Example 80, (2S)-2-[1-(3,5-Dichlorophenylsulfonyl)-L-prolylamino]-5-[4-[2-(4-morpholinyl)ethyl]piperidin-1-yl]-5-oxopentanoic Acid], for which 0.5 nM corresponded to half-maximal inhibition (IC50). As for `CN1CCN(C(=O)OCCC2CCN(C(=O)NC[C@H](NC(=O)[C@@H]3CCCN3S(=O)(=O)c3cc(Cl)cc(Cl)c3)C(=O)O)CC2)CC1` [Example 116, (2S)-2-[1-(3,5-Dichlorophenylsulfonyl)-L-prolyl]amino-3-[[4-[2-[(4-methylpiperazin-1-yl)carbonyloxy]ethyl]piperidin-1-ylcarbonyl]amino]propionic Acid], the figure is 9.8 nM; as for `Cc1ccc(S(=O)(=O)N2CCC[C@H]2C(=O)N[C@@H](CCC(=O)N2CCC(CN3Cc4ccccc4C3=O)CC2)C(=O)O)cc1` [Example 76, (2S)-5-Oxo-5-[4-(1-oxoisoindolin-2-ylmethyl)piperidin-1-yl]-2-[[1-tosyl-L-prolyl]amino]pentanoic Acid], 67 nM; as for `CCNCC1CCN(C(=O)CC[C@H](NC(=O)[C@@H]2CCCN2S(=O)(=O)c2cc(Cl)cc(Cl)c2)C(=O)O)CC1` [Example 96, (2S)-2-[1-(3,5-Dichlorophenylsulfonyl)-L-prolylamino]-5-[4-[(ethylamino)methyl]piperidin-1-yl]-5-oxopentanoic Acid], 74.8 nM.

For the origin of these results see US20050143391A1, “Heterocyclic amides with alpha-4 integrin antagonist activity” (J. Uriach Y Compañia S.A., priority 2002, published 2005).
